A short description of series [1]: Phase-solubility study with FUR (apparent stability constant KC). The format is physicochemical. As to conditions: aqueous solution, room temperature, 1:1 complex. On the procedure: The suspension was homogenized at room temperature using a thermomixer (Thermomixer C, Eppendorf, Austria) at 750 rpm until equilibrium in solubility was reached (3–4 days).
The next series has as its system Caco-2 cell monolayer. As to the kind of experiment: TEER measurement on the Caco-2 cell monolayer. The format is cell-based, human. As to conditions: for decrease in TEER: Caco-2 monolayer, during 3 h permeation experiment; for TEER regained in comparison to initial values: after cell washing and incubating with MEM. On the procedure:
Permeation studies on the Caco-2 cell monolayer were executed as described previously.[23] Caco-2 cells at a density of 0.6 × 10^5 cells/cm^2 were seeded onto 24-well plates with ThinCert inserts (pore-size: 400 μm, Greiner Bio-One, Kremsmünster, Austria). Cells were cultured in MEM containing 20% FCS in an atmosphere of 5% CO2 and 95% humidity at 37 °C. The medium was renewed every other day for 21 days. For permeation studies, only cell monolayers showing a transepithelial electrical resistance (TEER) in the range of 300–500 Ω cm^2 were applied, which were determined with an EVOM instrument. TEER was also determined at time point 3 h representing the end of the permeation experiment and after 24 and 48 h to confirm monolayer integrity. Before the start of the experiment, cells were washed with PBS. Thereafter, 500 μL of MEM without FCS was transferred to the donor chamber and 1000 μL of the same medium was transferred to an accepter chamber.
(Caco-2 monolayers are a common model of the intestinal barrier.)

Series [2] can be described thus: Stability of −SH groups toward oxidation at different pH. In kind it is physicochemical. How it is done:
Furthermore, the stability of the thiolated CD was measured under different pH. In short, per-6-thiolated α-CD (0.25% m/v) was hydrated in water, and pH was adjusted to 4 and 5 with acetate buffer (50 mM), to 6 with phosphate buffer (50 mM), and to 7.2 with Tris buffer (50 mM). Test samples were kept under continuous stirring at 37 °C. After specific time intervals, aliquots of 500 μL were taken. Any further reaction was quenched by adding 50 μL of 1 M HCl to each aliquot.[18] Sulfhydryl groups were quantified using Ellman’s reagent.

The nature of series [3]: Quantification of −SH content with Ellman's reagent. In kind it is physicochemical. How it is done: Per-6-thiolated α-CD was assessed for the amount of thiol by using Ellman’s reagent.[16] The calibration curve was established using L-cysteine.
On the technique in general: DTNB colorimetry detects thiols as they appear.

Series [4] can be described thus: pKa of −SH groups by photometric method. As to conditions: 0.001 M HCl containing 0.1 M NaCl, titrated with 0.01% NaOH; absorbance at 242 nm, 0.1% m/v. The format is physicochemical. How it is done:
As the stability of sulfhydryl groups depends on thiolate anions concentration, the pKa value of −SH groups on per-6-thiolated α-CD was determined via an established photometric method with some modifications.[17] Briefly, ionic strength was stabilized by dissolving per-6-thiolated α-CD (0.1% m/v) in 0.001 M HCl containing 0.1 M NaCl. Increasing volumes of 0.01% NaOH were added to per-6-thiolated CD solutions that were continuously measured regarding pH and absorbance at 242 nm. The pKa was determined by plotting pH versus −log[(Amax – Ai)/Ai].

Series [5] can be described thus: Resazurin cytotoxicity assay on Caco-2 cells. In kind it is cell-based, human. The following applies: human, read-out: cell viability. How it is done: (§1) The impact of per-6-thiolated α-CD on viability of human colorectal carcinoma (Caco-2) cells was evaluated by resazurin assay to confirm the safety of the newly synthesized oligomer. For this purpose, Caco-2 cells were obtained from the European Collection of Cell Cultures (Salisbury, UK). Caco-2 cells at a density of 2.5 × 10^4 cells/well were suspended in 500 μL of MEM and seeded to a 24-well plate. The plate was incubated at an atmosphere of CO2 (5%) and relative humidity (95%) at 37 °C for 2 weeks. During this culture period, the medium was replaced on alternative days.
(§2) Toxicity assay was performed to investigate the cytotoxic potential of per-6-thiolated α-CD by quantifying resorufin formed by the reduction of resazurin. On the day of the experiment, cells of around 80% confluency were washed two times with preheated 10 mM PBS pH 7.4. The oligomer solutions (500 μL) of per-6-thiolated and unmodified α-CD (0.5% m/v) in white MEM, 4% (v/v) Triton X-100 acting as a negative control and white MEM acting as a positive control were transferred to the cell culture wells.
(§3) After 3 and 24 h, test samples were withdrawn, and the cells were washed two times with preheated PBS. In the following, 500 μL of resazurin (2.2 μM) solution was added, and cells were further incubated for 3 h. Aliquots (100 μL) were inserted to a 96-well plate, and the fluorescence was analyzed at emission and excitation wavelength of 590 and 540 nm utilizing a microplate reader (M-200 spectrometer; Tecan infinite, Austria). Cell viability of cells was measured using eq 1 [drawing 1] 1
In general terms: Alamar Blue is a resazurin reagent that responds to reducing activity.

Series [6] has as its system human colorectal carcinoma (Caco-2) cells. Kind of series: Resazurin cytotoxicity assay on Caco-2 cells. The format is cell-based. The following applies: 0.5% (m/v), within 24 h. On the procedure: as §1, §2, §3

SMILES strings stand for the structures.

In general, pKa refers to the negative logarithm of the acid dissociation constant. High values mean a group that holds its proton tightly, low ones a group that gives up its proton readily. For orientation: viability means a read-out of living cells in per cent, often relative to untreated cells.

`OC[C@H]1O[C@@H]2O[C@H]3[C@H](O)[C@@H](O)[C@@H](O[C@H]4[C@H](O)[C@@H](O)[C@@H](O[C@H]5[C@H](O)[C@@H](O)[C@@H](O[C@H]6[C@H](O)[C@@H](O)[C@@H](O[C@H]7[C@H](O)[C@@H](O)[C@@H](O[C@H]1[C@H](O)[C@H]2O)O[C@@H]7CO)O[C@@H]6CO)O[C@@H]5CO)O[C@@H]4CO)O[C@@H]3CO` [α-CD, α-cyclodextrin, reference compound]: the “apparent stability constant (KC) with FUR” value in series [1] came to 1050.7 M^–1. Moreover, the “decrease in TEER” value in the series on Caco-2 cell monolayer was roughly 15%.
In the case of `O[C@@H]1[C@@H](O)[C@H]2O[C@H]3[C@H](O)[C@@H](O)[C@@H](O[C@H]4[C@H](O)[C@@H](O)[C@@H](O[C@H]5[C@H](O)[C@@H](O)[C@@H](O[C@H]6[C@H](O)[C@@H](O)[C@@H](O[C@H]7[C@H](O)[C@@H](O)[C@@H](O[C@@H]1[C@@H](CS)O2)O[C@@H]7CS)O[C@@H]6CS)O[C@@H]5CS)O[C@@H]4CS)O[C@@H]3CS` [per-6-thiolated α-CD, per-6-thiolated α-cyclodextrin], the “−SH groups oxidized” value in series [2] (after 3 h at pH 5, 37 °C) was determined as 15%. Moreover, the “stability of −SH groups” value in series [2] (pH 4, 37 °C, 0.25% m/v) is “stable”; in series [2] (pH ≤ 4), “stable”. Further, the “amount of −S–S– groups on the CD backbone” value in series [3] was determined as 786 ± 139 µmol/g. Moreover, in series [3] (Ellman's reagent), the “amount of −SH groups on the CD backbone” value worked out at 4244 ± 402 µmol/g. The molecule also displayed a pKa in series [4] of 8.1. Further, the “apparent stability constant (KC) with FUR” value in series [1] is on record as 1090.9 M^–1. In addition, the “decrease in TEER” value with Caco-2 cell monolayer was “up to 28%”. Moreover, the “TEER regained in comparison to initial values” with Caco-2 cell monolayer (after 24 h) is listed as 82%; in the series with Caco-2 cell monolayer (after 48 h), 90%. For the same molecule, in series [5] (after 3 h), the viability at 3 h, 0.5 % (m/v) is greater than 88%. For the same molecule, the viability at 24 h, 0.5 % (m/v) in series [5] (after 24 h) was greater than 88%. Moreover, in series [6], the cytotoxicity result is given as “not cytotoxic”.

The record behind these values is paper PMC7205388, “Per-6-Thiolated Cyclodextrins: A Novel Type of Permeation Enhancing Excipients for BCS Class IV Drugs” (ACS Applied Materials & Interfaces, 2020).
